Experimental data reported in patent US8481582B2, “1,3-dihydroimidazole-2-thione derivatives as inhibitors of dopamine-beta-hydroxylase” (Bial-Portela & CA, S.A., priority 2007, dated 2013).

Columns and labels:
[1] = central as well as peripheral effects; cited from earlier work
[2] = test system: noradrenaline levels in the heart and parietal cortex; test: Noradrenaline levels in heart and parietal cortex of mice 9 h after oral dosing; format: in vivo, Male NMRI mice; settings: oral gavage, 9 h post dose, FIG. 1, compared with prior art DβH inhibitors
Procedure: Male NMRI mice were obtained from Harlan-Interfauna (Spain) and were kept 10 per cage under controlled environmental conditions (12 h light/dark cycle and room temperature 22±1° C.). Food and tap water were allowed ad libitum and experimentation was performed during daylight hours.
At time=0 h, animals were administered with either test compounds (see FIG. 2) at a given dose or vehicle (water) delivered orally via gavage. At 9 h post dose, the animals were sacrificed by decapitation and heart (left atrium and left ventricle) and brain (parietal cortex) were isolated, weighed and stored in a volume of 0.2 M perchloric acid for 12 h at 4° C. in the dark. Post incubation, the resulting supernatants were collected by centrifuge filtration of incubates ([…]/10 min/˜5000 rpm, 4° C.). Supernatants were stored frozen at −80° C. until analysis. Quantification of dopamine and noradrenaline in supernatants was performed by high pressure liquid chromatography with electrochemical detection.

| SMILES | crossing of the blood brain barrier (BBB) [1] | effect on noradrenaline levels in the heart and parietal cortex (heart vs brain selectivity) [2] |
| --- | --- | --- |
| NCc1c[nH]c(=S)n1[C@H]1CCc2c(F)cc(F)cc2C1 [nepicastat] | cross the blood brain barrier |  |
| Fc1cc(F)c2c(c1)CC(n1c(CCNCc3ccccc3)c[nH]c1=S)CO2 (single isomer, unassigned) [formula X] |  | marked selectivity for the heart compared to the brain |
